Measurements: the CheMixHub viscosity set

Assay: xn = mol fraction of the nth substance listed
Details: 101 kPa

Oc1ccccc1Cl + CC(C)=O
Details | viscosity [mPa·s]
293.15 K, x1 = 0.09296 | 0.475
293.15 K, x1 = 0.1779 | 0.611
293.15 K, x1 = 0.3108 | 0.992
293.15 K, x1 = 0.4089 | 1.376
293.15 K, x1 = 0.5253 | 2.051
293.15 K, x1 = 0.6914 | 3.17
293.15 K, x1 = 0.8336 | 3.91
298.15 K, x1 = 0.101 | 0.442
298.15 K, x1 = 0.2004 | 0.644
298.15 K, x1 = 0.2997 | 0.857
298.15 K, x1 = 0.4006 | 1.217
298.15 K, x1 = 0.5 | 1.666
298.15 K, x1 = 0.5999 | 2.19
298.15 K, x1 = 0.6997 | 2.712
298.15 K, x1 = 0.7988 | 3.086
298.15 K, x1 = 0.9003 | 3.303
303.15 K, x1 = 0.09296 | 0.419
303.15 K, x1 = 0.1779 | 0.569
303.15 K, x1 = 0.3108 | 0.893
303.15 K, x1 = 0.4089 | 1.199
303.15 K, x1 = 0.5253 | 1.684
303.15 K, x1 = 0.6914 | 2.4
303.15 K, x1 = 0.8336 | 2.85
313.15 K, x1 = 0.09296 | 0.382
313.15 K, x1 = 0.1779 | 0.508
313.15 K, x1 = 0.3108 | 0.777
313.15 K, x1 = 0.4089 | 1.019
313.15 K, x1 = 0.5253 | 1.369
313.15 K, x1 = 0.6914 | 1.886
313.15 K, x1 = 0.8336 | 2.165
323.15 K, x1 = 0.09296 | 0.3515
323.15 K, x1 = 0.1779 | 0.465
323.15 K, x1 = 0.3108 | 0.687
323.15 K, x1 = 0.4089 | 0.893
323.15 K, x1 = 0.5253 | 1.154
323.15 K, x1 = 0.6914 | 1.527
323.15 K, x1 = 0.8336 | 1.735

Oc1ccccc1Cl + CC(C)CO
Details | viscosity [mPa·s]
303.15 K, x1 = 0.3796 | 5.333

CC(C)c1ccccc1 + CC(C)O
viscosity [mPa·s]
Details | x2 = 0.1013 | x2 = 0.2013 | x2 = 0.2991 | x2 = 0.4002 | x2 = 0.4993 | x2 = 0.6002 | x2 = 0.7002 | x2 = 0.8006 | x2 = 0.9002
303.15 K | 0.6764 | 0.6831 | 0.7003 | 0.7299 | 0.7766 | 0.8482 | 0.9452 | 1.104 | 1.34
308.15 K | 0.6347 | 0.6402 | 0.6534 | 0.6776 | 0.7151 | 0.7732 | 0.8534 | 0.9869 | 1.183
313.15 K | 0.5971 | 0.599 | 0.6093 | 0.6291 | 0.6596 | 0.7081 | 0.7742 | 0.8854 | 1.046
318.15 K | 0.562 | 0.5619 | 0.5682 | 0.5853 | 0.611 | 0.6508 | 0.7041 | 0.7975 | 0.9303
323.15 K | 0.5287 | 0.5275 | 0.5322 | 0.5444 | 0.5654 | 0.5976 | 0.6419 | 0.7195 | 0.8272
